Read-outs that look alike come from different tables or passages of the source. Where a SMILES comes first, the peptide text is derived from it. [ ]: non-standard residue; d: D form. The star is where a group is joined. F2Pmp = N[C@@H](Cc1ccc(C(F)(F)P(=O)(O)O)cc1)C(=O)O; Phenylacetyl(4-OH,3-OMe) = COc1cc(CC(=O)*)ccc1O; Benzoyl(3-Br,4-Me) = Cc1ccc(C(=O)*)cc1Br; X1 = Cc1ncsc1-c1ccc([C@H](C)N*)cc1; Hyp = O=C(O)[C@@H]1C[C@@H](O)CN1; Tle = CC(C)(C)[C@H](N)C(=O)O; PEG1 = NCCOCCC(=O)O
Assays:
TC-PTP [1] = target: T1, TC-PTP (Homo sapiens, UniProt P17706); experiment: FP-based library screening (fluorescence polarization displacement); assay type: binding
T1 sequence (P17706 1-415): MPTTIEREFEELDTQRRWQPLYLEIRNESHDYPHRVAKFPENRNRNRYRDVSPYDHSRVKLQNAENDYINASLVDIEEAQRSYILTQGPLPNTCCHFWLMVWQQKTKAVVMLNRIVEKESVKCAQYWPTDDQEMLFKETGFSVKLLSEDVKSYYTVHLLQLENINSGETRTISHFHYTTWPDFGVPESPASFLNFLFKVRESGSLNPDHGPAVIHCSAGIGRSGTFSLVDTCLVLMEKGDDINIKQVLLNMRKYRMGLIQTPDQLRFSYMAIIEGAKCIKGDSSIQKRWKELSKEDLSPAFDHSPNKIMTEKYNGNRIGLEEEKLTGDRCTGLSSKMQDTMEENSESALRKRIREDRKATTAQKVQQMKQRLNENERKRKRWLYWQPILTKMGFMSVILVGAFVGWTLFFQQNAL
Protocol: (§1) The library screening assay was carried out on a Tecan Genesis workstation with a 96-channel tip block with fixed tips. Before the screening, the library compounds were diluted from the DMSO stock solution into 3,3-dimethylglutarate buffer (50 mM 3,3-dimethylglutarate buffer, pH 7.0, containing 1 mM EDTA with an ionic strength of 0.15 M adjusted by addition of NaCl), resulting in a set of six daughter plates with an ~75 nM concentration of each compound in each well. In the first screen, PTP1B or TCPTP (2 μM in 50 mM 3,3-dimethylglutarate buffer, 50 μL, pH 7.0, containing 1 mM EDTA with an ionic strength of 0.15 M adjusted by addition of NaCl) was dispensed into each well of a 384-well plate, and then 2 μL of the fluorescein-tagged library compounds were transferred from four 96-well intermediate plates to the 384-well plate (final compound concentration ~3 nM). The fluorescence polarization values (A1) were recorded on an Envision 2021 Multilabel Microplate Reader (Perkin-Elmer). In the second screen, 50 μL of a mixture of 2 μM PTP1B or TCPTP and 500 μM Fmoc-F2Pmp-OH (as a competitive ligand) in 3,3-dimethylglutarate buffer (50 mM 3,3-dimethylglutarate buffer, pH 7.0, containing 1 mM EDTA with an ionic strength of 0.15 M adjusted by addition of NaCl) were dispensed into each well of another 384-well plate, followed by the addition of 2 μL of the fluorescein tagged library compounds (75 nM in 3,3-dimethylglutarate buffer, pH 7.0, containing 1 mM EDTA with an ionic strength of 0.15 M adjusted by addition of NaCl). The fluorescence polarization values (A2) were again measured. A displacement percentage was calculated for each library compound as (A1−A2)/(A1−A0)×100%, where A1 and A2 are the fluorescence anisotropy values of each sample as described, and A0 is the fluorescence anisotropy of free library compounds in 3,3-dimethylglutarate buffer. To simplify the calculation, A0 was set to 30. The binding affinity ranking of each compound was determined on the displacement percentage: the […] the displacement percentage, the higher the binding affinity.
(§2) The library was screened using the same protocol as the library 1, except that 0.5 μM PTP1BB/TC-PTP and 1.5 mM competitive ligand Fmoc-F2Pmp-OH were used.
(§3) The library was screened using the same protocol as the library 1, except that 0.5 μM PTP1B/TC-PTP and 5 μM ((4-((S)-2-((S)-2-acetamido-3-phenylpropanamido)-3-(((S)-1-amino-6-(3-bromo-4-methylbenzamido)-1-oxohexan-2-yl)amino)-3-oxopropyl)phenyl)difluoromethyl)phosphonic acid (as a competitor) were used.

PTP1B [2] = target: T2, PTP1B (Homo sapiens, UniProt P18031); experiment: as above; assay type: binding
T2 sequence (P18031 1-435): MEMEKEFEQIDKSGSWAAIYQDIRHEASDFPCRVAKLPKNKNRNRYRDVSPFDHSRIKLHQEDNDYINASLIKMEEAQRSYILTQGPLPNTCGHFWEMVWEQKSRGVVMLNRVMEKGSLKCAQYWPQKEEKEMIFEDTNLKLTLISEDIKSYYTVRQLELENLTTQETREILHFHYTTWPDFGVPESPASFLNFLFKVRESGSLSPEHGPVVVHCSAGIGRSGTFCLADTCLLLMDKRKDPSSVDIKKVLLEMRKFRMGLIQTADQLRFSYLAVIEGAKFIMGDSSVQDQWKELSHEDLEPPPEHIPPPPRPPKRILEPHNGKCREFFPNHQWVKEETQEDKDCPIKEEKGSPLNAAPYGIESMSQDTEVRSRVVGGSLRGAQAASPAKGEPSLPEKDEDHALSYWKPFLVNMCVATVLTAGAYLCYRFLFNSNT
Protocol: as §1, §2, §3

TC-PTP [3] = target: T1, TC-PTP; experiment: Degradation assay in HEK293 cells (immunoblotting); assay type: cell-based; set-up: endogenous in cells; host or cells: HEK293; conditions: 0.2 μM degrader, 16 hours, read-out: % Protein Degradation TC-PTP
Protocol: (§4) HEK293. MIAPaCa-2, HepG2, U2OS, H116, MEF, B16F10, and MC38 cells, were grown in DMEM, while Jurkat and H358 cells were grown in RPMI 1640 supplemented with 10% fetal bovine serum, penicillin (50 units/mL), and streptomycin (50 μg/mL) in a 37° C. incubator containing 5% CO2. 20 ng/ml human (Biolegend #713906) or mouse (Biolegend #714006) Interferon-γ were used for JAK/STAT pathway stimulation.
(§5) Tissues or cultured cells were lysed with ice-cold lysis buffer (50 mM Tris (pH 8.0, 150 mM NaCl, 10% Glycerol, 1% Triton-X-100) supplied with phosphatase inhibitor (Bimake) and protease inhibitor mixture (Roche Applied Science). Equal amounts of protein were resolved by SDS-PAGE, transferred to nitrocellulose membrane, and subjected to immunoblotting. Antibodies used in this study include anti-following proteins: pSTAT1^Tyr701 (Cell Signaling Technology #9167, 1:3000), GAPDH (Cell Signaling Technology #97166, 1:5000), pJAK1^Tyr1034/1035 (Cell Signaling Technology #74129, 1:1000), pJAK2^Tyr1007/1008 (Cell Signaling Technology #3776, 1:1000), TC-PTP (Abcam #ab180764, 1:3000). PTP1B (Abcam #ab244207, 1:1500).
(§6) Degradation assay was conducted in HEK293 cells with 1 μM degrader and 24 hours incubation.
(§7) The degradation assay was conducted in HEK293 cells with 0.2 μM degrader and 16 hours incubation.

PTP1B [4] = target: T2, PTP1B; experiment: Degradation assay in HEK293 cells (immunoblotting); assay type: cell-based; set-up: endogenous in cells; host or cells: HEK293; conditions: 0.2 μM degrader, 16 hours
Protocol: as §4, §5, §6, §7

TC-PTP [5] = target: T1, TC-PTP; experiment: PTP activity assay with pNPP substrate (IC50, Ki, mode of inhibition); assay type: biochemical
Protocol: (§8) PTP activity was assayed using p-nitrophenyl phosphate (pNPP) as a substrate in DMG buffer (50 mM DMG. pH 7.0, 1 mM EDTA, 150 mM NaCl, 2 mM DTT, 0.1 mg/mL BSA) at 25° C. The assays were performed in 96-well plates. Normally, to determine the IC50 values, the reaction was initiated by the addition of enzyme (for PTP1B and TCPTP, the final concentration was 0.4 nM, for other PTPs, the final concentration was 10 nM) to a reaction mixture (0.2 mL) containing 2 mM (Km for the substrate) pNPP with various concentrations of inhibitors (see FIG. 1). The reaction rate was measured using a SpectraMax Plus 384 Microplate Spectrophotometer (Molecular Devices). Data were fitted using SigmaPlot Enzyme Kinetics Module (Systat Software, Inc.). To determine the mode of inhibition, the reactions were initiated by the addition of enzyme (final concentration for TC-PTP and PTP1B was 0.4 nM) to the reaction mixtures (0.2 mL) containing various concentrations of pNPP with different concentrations of the inhibitor. Data were fitted using SigmaPlot Enzyme Kinetics Module (Systat Software. Inc.).

PTP1B [6] = target: T2, PTP1B; experiment: as above; assay type: biochemical
Protocol: as §8

[7] = library 3, 0.5 μM enzyme, 5 μM Example 6 compound as competitor
[8] = library 2, 0.5 μM enzyme, 1.5 mM Fmoc-F2Pmp-OH
[9] = library 1, 2 μM TCPTP, 500 μM Fmoc-F2Pmp-OH competitive ligand, smaller = higher affinity
[10] = library 1, 2 μM PTP1B, 500 μM Fmoc-F2Pmp-OH competitive ligand, smaller = higher affinity

## 2-(3-fluoro-4- hydroxyphenyl)acetic acid
TC-PTP [1]; [7]
  Displacement %, TC-PTP: 75%
PTP1B [2]; [7]
  Displacement %, PTP1B: 72%

## 2-(4-chloro-2- methylphenoxy)acetic acid
TC-PTP [1]; [8]
  Displacement %, TC-PTP: 55%
PTP1B [2]; [8]
  Displacement %, PTP1B: 57%

## 3-bromo-4- methylbenzoic acid
TC-PTP [1]; [9]
  Displacement %, TC-PTP: 39%
PTP1B [2]; [10]
  Displacement %, PTP1B: 34%

## COc1cc(CC(=O)N[C@@H](Cc2ccccc2)C(=O)N[C@@H](Cc2ccc(C(F)(F)P(=O)(O)O)cc2)C(=O)N[C@@H](CCCCNC(=O)c2ccc(C)c(Br)c2)C(=O)NCc2ccccc2CCC(=O)N[C@H](C(=O)N2C[C@H](O)C[C@H]2C(=O)NCc2ccc(-c3scnc3C)cc2)C(C)(C)C)ccc1O (stereo in doubt) [Compound 40, ((4-((S)-3-(((S)-6-(3-bromo-4-methylbenzamido)-1-((2-(3-(((S)-1-((2S,4R)-4-hydroxy-2-((4-(4-methylthiazol-5-yl)benzyl)carbamoyl)pyrrolidin-1-yl)-3,3-dimenthyl-1-oxobutan-2-yl)amino)-3-oxopropyl)benzyl)amino)-1-oxohexan-2-yl)amino)-2-((S)-2-(2-(4-hydroxy-3-methoxyphenyl)acetamido)-3-phenylpropanamido)-3-oxopropyl)phenyl)difluoromethyl)phosphonic Acid]
TC-PTP [3]
  percent TC-PTP degradation at 0.2 µM: 0%
PTP1B [4]
  % Protein Degradation PTP1B: 16%
TC-PTP [5]
  IC50: 2.9 ± 0.5 nM
PTP1B [6]
  IC50: 3.8 ± 0.4 nM

## CN(C)c1ccc(CC(=O)O)cc1 [2-(4-(dimethylamino)phenyl) acetic acid]
TC-PTP [1]; [7]
  Displacement %, TC-PTP: 79%
PTP1B [2]; [7]
  Displacement %, PTP1B: 81%

## O=C(O)Cc1ccc(Br)cc1 [2-(4-bromophenyl)acetic acid]
TC-PTP [1]; [7]
  Displacement %, TC-PTP: 77%
PTP1B [2]; [7]
  Displacement %, PTP1B: 77%

## COc1cc(CC(=O)O)ccc1O [2-(4-hydroxy-3-methoxyphenyl)acetic acid]
TC-PTP [1]; [7]
  Displacement %, TC-PTP: 54%
PTP1B [2]; [7]
  Displacement %, PTP1B: 51%

## O=C(O)Cc1ccc(O)cc1 [2-(4-hydroxyphenyl)acetic acid]
TC-PTP [1]; [7]
  Displacement %, TC-PTP: 62%
PTP1B [2]; [7]
  Displacement %, PTP1B: 66%

## Cc1ccc(CCC(=O)O)cc1 [3-(p-tolyl)propanoic acid]
TC-PTP [1]; [8]
  Displacement %, TC-PTP: 53%
PTP1B [2]; [8]
  Displacement %, PTP1B: 47%

## COc1ccc(C(=O)O)cc1F [3-fluoro-4-methoxybenzoic acid]
TC-PTP [1]; [9]
  Displacement %, TC-PTP: 54%
PTP1B [2]; [10]
  Displacement %, PTP1B: 57%

## COc1cc(C(=O)O)ccc1[N+](=O)[O-] [3-methoxy-4-nitrobenzoic acid]
TC-PTP [1]; [9]
  Displacement %, TC-PTP: 40%
PTP1B [2]; [10]
  Displacement %, PTP1B: 41%

## O=C(O)c1ccsc1 [3-thiophenecarboxylic acid]
TC-PTP [1]; [9]
  Displacement %, TC-PTP: 51%
PTP1B [2]; [10]
  Displacement %, PTP1B: 45%

## O=C(O)c1ccc(F)cc1 [4-fluorobenzoic acid]
TC-PTP [1]; [9]
  Displacement %, TC-PTP: 46%
PTP1B [2]; [10]
  Displacement %, PTP1B: 44%

## CCOC(=O)N[C@@H](Cc1ccccc1)C(=O)O [(ethoxycarbonyl)-L- phenylalanine]
TC-PTP [1]; [8]
  Displacement %, TC-PTP: 41%
PTP1B [2]; [8]
  Displacement %, PTP1B: 44%

## COc1cc(CC(=O)N[C@@H](Cc2ccccc2)C(=O)N[C@@H](Cc2ccc(C(F)(F)P(=O)(O)O)cc2)C(=O)N[C@@H](CCCCNC(=O)c2ccc(C)c(Br)c2)C(=O)NCCOCCC(=O)N[C@H](C(=O)N2C[C@H](O)C[C@H]2C(=O)N[C@@H](C)c2ccc(-c3scnc3C)cc2)C(C)(C)C)ccc1O [Compound 27, ((4-((2S,5S,15S)-5-(4-(3-bromo-4-methylbenzamido)butyl)-15-((2S,4R)-4-hydroxy-2-(((S)-1-(4-(4-methylthiazol-5-yl)phenyl)ethyl)carbamoyl)pyrrolidine-1-carbonyl)-2-((S)-2-(2-(4-hydroxy-3-methoxyphenyl)acetamido)-3-phenylpropanamido)-16,16-dimethyl-3,6,13-trioxo-10-oxa-4,7,14-triazaheptadecyl)phenyl)difluoromethyl)phosphonic Acid] ({Phenylacetyl(4-OH,3-OMe)}-F[F2Pmp]K(Benzoyl(3-Br,4-Me))[PEG1][Tle][Hyp]-X1)
TC-PTP [3]
  percent TC-PTP degradation at 0.2 µM: 63%
PTP1B [4]
  % Protein Degradation PTP1B: 75%
TC-PTP [5]; pNPP 2 mM, pH 7.0, 25° C., read-out: IC50, nM TC-PTP
  IC50: 6.7 ± 2 nM
PTP1B [6]; pNPP 2 mM, pH 7.0, 25° C., read-out: IC50, nM PTP1B
  IC50: 15.5 ± 2.1 nM

## CC(=O)N[C@@H](Cc1ccccc1)C(=O)O [acetyl-L-phenylalanine]
TC-PTP [1]; [8]
  Displacement %, TC-PTP: 41%
PTP1B [2]; [8]
  Displacement %, PTP1B: 37%

## (S)-2-acetamido-3-(4- fluorophenyl)propanoic acid
TC-PTP [1]; [8]
  Displacement %, TC-PTP: 45%
PTP1B [2]; [8]
  Displacement %, PTP1B: 45%
